Entries after “also recorded” stand apart in the source; their conditions may differ.
Legend:
[1] = ESR spin trapping (4-POBN) of reactive oxygen species in aqueous solution; assay type: physicochemical; conditions: NIR (WST11) or UVA (RF) irradiation
Description: All ESR measurements were carried out using a Magnettech ESR Miniscope MS 100 Spectrometer (Germany), with a Microwave X-band Bridge. The ESR spectrometer operates at 9.3-9.55 GHz, 20 mW microwave power. ESR measurements were carried out at room temperature in glass capillaries or flat cells. […] To each solution, the spin-trap α-(4-pyridyl N-oxide)-N-tert-butylnitrone (4-POBN, 65 mM) and ethanol (8%) were added. Controls contained illuminated 4-POBN in saline with/without dextran, and non-illuminated Bchl-S, Bchl-D, RF and RF-D solutions with/without 4-POBN.

[2] = system: rabbit cornea; test: Stress-strain measurements of in-vivo treated corneas
Description: Twelve to twenty five weeks old rabbits (2.5-3 Kg weight) were used. They were anesthetized by intramuscular (i.m.) injection of 35 mg/kg ketamine (Rhone Merieux, Lyon, France) and 5 mg/kg xylazine (Vitamed, Binyamina, Israel). Usually, 16 rabbits were assigned for bacteriochlorophyll treatment. After de-epithelialization, one eye of each rabbit was treated topically with a test compound in saline for 10, 20 and 30 minutes using an eye cap (12 mm in diameter), followed by NIR illumination for 10, 20 or 30 minutes (755 nm, 10 mW/cm^2). The other eye served as untreated control. To prevent exposure of the limbal stem cells, the illuminated area was restricted by an aluminum foil mask with an 8 mm diameter central opening. To determine the role of dextran, 12 rabbits were divided into 4 treatment groups of 3 rabbits each: group 1, the Bchl-S group, was treated with a saline solution of a bacteriochlorophyll derivative; group 2, the Bchl-D group, treated with a bacteriochlorophyll-dextran solution. Both groups were incubated with the test compound for 20-min, followed by NIR illumination (755 nm, 10 mW/cm^2) for 30 minutes. Group 3, the RF group, was treated with riboflavin without dextran, and group 4, the RF-D group was treated with RF-dextran solution (RF-D). Both groups were incubated with RF or RF-D solutions for 30-minute, followed by UVA illumination (370 nm, 3 mW/cm^2) for 30 minutes. An ophthalmic ointment containing dexamethasone 0.1%, neomycin and polymixin B (Maxitrol®, Alcon, Belgium) was applied on the treated eyes once daily for two weeks. Four weeks after the treatment the rabbits were sacrificed, and the corneoscleral rings were removed and placed on paraffin hemisphere buttons of matching shape to assure accurate sectioning without stretching the tissue. Corneal strips, 4±0.2 mm in width, were cut from the epithelial side, as described above in the ex-vivo section. The corneal strips were transferred to the biomechanical tester without delay.
The corneal and scleral strips were clamped horizontally, at a distance of 6 mm, between the jaws of a microcomputer-controlled biomaterial tester (Minimat, Germany) with a 200 Newton force cell (FIG. 1). Controlled tightening of screws was performed with a calibrated screwdriver at a preset torque of 9 cN.m (Torqueleader, England). The strain was increased linearly at a rate of 1.0 mm/min and was measured up to tissue rupture. Young's modulus was calculated by the testing machine. Ultimate stress and Young's modulus were expressed in Mega Pascal (MPa) units.
Corneas of 16 live rabbits were pretreated for 10 (n=4), 20 (n=6) and 30 (n=6) minutes with WST11-S (2.5 mg/ml). NIR illumination (755 nm, 10 mW/cm^2) was then delivered for 30 minutes. […] Results are shown in FIGS. 9A-9B, and in Tables 1 and 2.
To determine the role of dextran, the photochemical treatment with a formulation of WST11 2.5 mg/ml containing 20% dextran T-500 (WST11-D) was examined. Six rabbits were examined: 3 rabbits were pretreated for 20 min with WST11-S solution and 3 with WST11-D solution, followed by NIR illumination for 30 minutes. Additional 4 rabbits were treated with RF (n=2) or RF-D (n=2) for 30 minutes, followed by 30-min UVA irradiation (370 nm, 3 mW/cm^2).

[3] = system: rabbit cornea keratocytes; test: Staining for apoptosis (TUNEL assay); assay type: in vivo; conditions: one day postoperatively
Description: For apoptosis detection, rabbits were euthanized one day post Bchl-S or Bchl-D treatment. Their corneas were removed, fixated in 4% formaldehyde and embedded in paraffin. […] central sections were prepared from the corneas, placed on microscope slides and deparaffinized. Peroxidase-based terminal deoxyribonucleotidyl transferase-mediated dUTP-digoxigenin nick and labeling (TUNEL) assay was performed according to the manufacturer's instructions (Apop-Tag assay, Chemicon, Merck Millipore, Darmstadt, Germany).

[4] = 20 min pretreatment, saline or 20% dextran T-500 formulation, 30 min NIR
[5] = 30 days, 30 min incubation, 30 min NIR, vs untreated fellow eyes, dipotassium salt
[6] = 30 days, 30 min incubation, 30 min NIR, vs untreated fellow eyes, listed as WST11-S, dipotassium salt
[7] = one month, 10 min incubation, 30 min NIR
[8] = one month, 20 min incubation, 30 min NIR

CCC1C2=Cc3c(C)c(C(=O)NCCS(=O)(=O)[O-])c4[n]3[Pd][n]3c(c(C)c(C(C)=O)c3=CC(=N2)C1C)=CC1=NC(=C4CC(=O)OC)C(CCC(=O)[O-])C1C.[K+].[K+] (centres unmarked) [WST11, Palladium 3^1-oxo-15-methoxycarbonylmethyl-rhodobacteriochlorin 13^1-(2-sulfoethyl)amide dipotassium salt]
singlet oxygen trapping (ESR quartet of 4-POBN) [1]: minimal traces of singlet oxygen | superoxide and hydroxyl radicals (ESR sextet of 4-POBN) ([1]; dipotassium salt): generate superoxide and hydroxyl radicals; also recorded: superoxide and hydroxyl radical formation | increase in Young's modulus compared with untreated corneas of fellow eyes [2, 4]: approximately two-fold increase | increase in mean ultimate stress compared with untreated corneas of fellow eyes [2, 4]: approximately two-fold increase | Mean Young's Modulus Intensity ([2]; 30 days, 30 min incubation 2.5 mg/ml, 30 min NIR): 32 ± 3.6 MPa | Mean ultimate stress Intensity ([2]; 30 days, 30 min incubation 2.5 mg/ml, 30 min NIR 755 nm 10 mW/cm^2): 6.91 ± 0.53 MPa | Mean Young's Modulus Increase % [2, 5]: 174% | Mean ultimate stress Increase % [2, 5]: 111% | Mean Young's Modulus Increase % [2, 6]: 173% | Mean ultimate stress Increase % [2, 6]: 126% | Mean Young's Modulus Intensity [2, 7]: 13.9 ± 3.9 MPa | Mean ultimate stress Increase % [2, 7]: 45% | Mean ultimate stress Intensity [2, 7]: 4.51 ± 1.85 MPa | Mean Young's Modulus Increase % ([2]; one month, 10 min incubation, 30 min NIR, dipotassium salt): 9% | Mean Young's Modulus Increase % ([2]; one month, 10 min incubation, 30 min NIR, listed as WST11-S, dipotassium salt): 10% | Mean Young's Modulus Increase % [2, 8]: 79% | Mean Young's Modulus Intensity [2, 8]: 22.7 ± 3.82 MPa | Mean ultimate stress Increase % [2, 8]: 113% | Mean ultimate stress Intensity [2, 8]: 6.66 ± 0.67 MPa | location of TUNEL-positive keratocytes [3]: outer ½ of anterior stroma

From patent US11058772B2, “(Bacterio)chlorophyll photosensitizers for treatment of eye diseases and disorders” (Yeda Research and Development Co. Ltd., priority 2011, dated 2021)
